One block for each compound: values may come before it.
Columns and labels:
Parameters in all cases: dose 0.5-1 mg/kg, route intravenous
Heart [1] = assay: Biodistribution in Sprague-Dawley rat heart at 0.5 to 1 mg/kg, iv after 1 hr by gamma-well counting analysis; assay type: ADME, organism-based; conditions: in vivo
Bone [2] = assay: Biodistribution in Sprague-Dawley rat bone assessed per organ at 0.5 to 1 mg/kg, iv after 1 hr by gamma-well counting analysis; assay type: ADME, organism-based, Bone element; conditions: in vivo
Thyroid gland [3] = assay: Biodistribution in Sprague-Dawley rat thyroid assessed per organ at 0.5 to 1 mg/kg, iv after 1 hr by gamma-well counting analysis; assay type: ADME, organism-based; conditions: in vivo
Lung [4] = assay: Biodistribution in Sprague-Dawley rat lung at 0.5 to 1 mg/kg, iv after 1 hr by gamma-well counting analysis; assay type: ADME, organism-based; conditions: in vivo
Liver [5] = assay: Biodistribution in Sprague-Dawley rat liver at 0.5 to 1 mg/kg, iv after 1 hr by gamma-well counting analysis; assay type: ADME, organism-based; conditions: in vivo
Bone [6] = assay: Biodistribution in Sprague-Dawley rat bone at 0.5 to 1 mg/kg, iv after 15 mins by gamma-well counting analysis; assay type: ADME, organism-based, Bone element; conditions: in vivo, 0.25 h
Large intestine [7] = assay: Biodistribution in Sprague-Dawley rat large intestine assessed per organ at 0.5 to 1 mg/kg, iv after 1 hr by gamma-well counting analysis; assay type: ADME, organism-based; conditions: in vivo
Spleen [8] = assay: Biodistribution in Sprague-Dawley rat spleen assessed per organ at 0.5 to 1 mg/kg, iv after 1 hr by gamma-well counting analysis; assay type: ADME, organism-based; conditions: in vivo
Thyroid gland [9] = assay: Biodistribution in Sprague-Dawley rat thyroid at 0.5 to 1 mg/kg, iv after 1 hr by gamma-well counting analysis; assay type: ADME, organism-based; conditions: in vivo
Liver [10] = assay: Biodistribution in Sprague-Dawley rat liver assessed per organ at 0.5 to 1 mg/kg, iv after 15 mins by gamma-well counting analysis; assay type: ADME, organism-based; conditions: in vivo, 0.25 h
Thyroid gland [11] = assay: Biodistribution in Sprague-Dawley rat thyroid at 0.5 to 1 mg/kg, iv after 15 mins by gamma-well counting analysis; assay type: ADME, organism-based; conditions: in vivo, 0.25 h
Blood [12] = assay: Biodistribution in Sprague-Dawley rat blood at 0.5 to 1 mg/kg, iv after 1 hr by gamma-well counting analysis; assay type: ADME, organism-based; conditions: in vivo
Large intestine [13] = assay: Biodistribution in Sprague-Dawley rat large intestine assessed per organ at 0.5 to 1 mg/kg, iv after 15 mins by gamma-well counting analysis; assay type: ADME, organism-based; conditions: in vivo, 0.25 h
Blood [14] = assay: Biodistribution in Sprague-Dawley rat blood assessed per organ at 0.5 to 1 mg/kg, iv after 1 hr by gamma-well counting analysis; assay type: ADME, organism-based; conditions: in vivo
Lung [15] = assay: Biodistribution in Sprague-Dawley rat lung assessed per organ at 0.5 to 1 mg/kg, iv after 15 mins by gamma-well counting analysis; assay type: ADME, organism-based; conditions: in vivo, 0.25 h
Heart [16] = assay: Biodistribution in Sprague-Dawley rat heart assessed per organ at 0.5 to 1 mg/kg, iv after 15 mins by gamma-well counting analysis; assay type: ADME, organism-based; conditions: in vivo, 0.25 h
Kidney [17] = assay: Biodistribution in Sprague-Dawley rat kidney assessed per organ at 0.5 to 1 mg/kg, iv after 1 hr by gamma-well counting analysis; assay type: ADME, organism-based; conditions: in vivo
Kidney [18] = assay: Biodistribution in Sprague-Dawley rat kidney at 0.5 to 1 mg/kg, iv after 15 mins by gamma-well counting analysis; assay type: ADME, organism-based; conditions: in vivo, 0.25 h
Spleen [19] = assay: Biodistribution in Sprague-Dawley rat spleen at 0.5 to 1 mg/kg, iv after 1 hr by gamma-well counting analysis; assay type: ADME, organism-based; conditions: in vivo
Muscle tissue [20] = assay: Biodistribution in Sprague-Dawley rat muscle assessed per organ at 0.5 to 1 mg/kg, iv after 1 hr by gamma-well counting analysis; assay type: ADME, organism-based; conditions: in vivo
Blood [21] = assay: Biodistribution in Sprague-Dawley rat blood assessed per organ at 0.5 to 1 mg/kg, iv after 15 mins by gamma-well counting analysis; assay type: ADME, organism-based; conditions: in vivo, 0.25 h
Thyroid gland [22] = assay: Biodistribution in Sprague-Dawley rat thyroid assessed per organ at 0.5 to 1 mg/kg, iv after 15 mins by gamma-well counting analysis; assay type: ADME, organism-based; conditions: in vivo, 0.25 h
Bone [23] = assay: Biodistribution in Sprague-Dawley rat bone at 0.5 to 1 mg/kg, iv after 1 hr by gamma-well counting analysis; assay type: ADME, organism-based, Bone element; conditions: in vivo
Kidney [24] = assay: Biodistribution in Sprague-Dawley rat kidney assessed per organ at 0.5 to 1 mg/kg, iv after 15 mins by gamma-well counting analysis; assay type: ADME, organism-based; conditions: in vivo, 0.25 h
[25] = Biodistribution in Sprague-Dawley rat fat and fur assessed per organ at 0.5 to 1 mg/kg, iv after 1 hr by gamma-well counting analysis; assay type: ADME, organism-based, Adipose tissue; conditions: in vivo
Stomach [26] = assay: Biodistribution in Sprague-Dawley rat stomach assessed per organ at 0.5 to 1 mg/kg, iv after 1 hr by gamma-well counting analysis; assay type: ADME, organism-based; conditions: in vivo
Small intestine [27] = assay: Biodistribution in Sprague-Dawley rat small intestine assessed per organ at 0.5 to 1 mg/kg, iv after 1 hr by gamma-well counting analysis; assay type: ADME, organism-based; conditions: in vivo
Liver [28] = assay: Biodistribution in Sprague-Dawley rat liver assessed per organ at 0.5 to 1 mg/kg, iv after 1 hr by gamma-well counting analysis; assay type: ADME, organism-based; conditions: in vivo
Bone [29] = assay: Biodistribution in Sprague-Dawley rat bone assessed per organ at 0.5 to 1 mg/kg, iv after 15 mins by gamma-well counting analysis; assay type: ADME, organism-based, Bone element; conditions: in vivo, 0.25 h
Spleen [30] = assay: Biodistribution in Sprague-Dawley rat spleen assessed per organ at 0.5 to 1 mg/kg, iv after 15 mins by gamma-well counting analysis; assay type: ADME, organism-based; conditions: in vivo, 0.25 h
Heart [31] = assay: Biodistribution in Sprague-Dawley rat heart at 0.5 to 1 mg/kg, iv after 15 mins by gamma-well counting analysis; assay type: ADME, organism-based; conditions: in vivo, 0.25 h
Lung [32] = assay: Biodistribution in Sprague-Dawley rat lung assessed per organ at 0.5 to 1 mg/kg, iv after 1 hr by gamma-well counting analysis; assay type: ADME, organism-based; conditions: in vivo
Stomach [33] = assay: Biodistribution in Sprague-Dawley rat stomach assessed per organ at 0.5 to 1 mg/kg, iv after 15 mins by gamma-well counting analysis; assay type: ADME, organism-based; conditions: in vivo, 0.25 h
Liver [34] = assay: Biodistribution in Sprague-Dawley rat liver at 0.5 to 1 mg/kg, iv after 15 mins by gamma-well counting analysis; assay type: ADME, organism-based; conditions: in vivo, 0.25 h
Lung [35] = assay: Biodistribution in Sprague-Dawley rat lung at 0.5 to 1 mg/kg, iv after 15 mins by gamma-well counting analysis; assay type: ADME, organism-based; conditions: in vivo, 0.25 h
Muscle tissue [36] = assay: Biodistribution in Sprague-Dawley rat muscle at 0.5 to 1 mg/kg, iv after 15 mins by gamma-well counting analysis; assay type: ADME, organism-based; conditions: in vivo, 0.25 h
Blood [37] = assay: Biodistribution in Sprague-Dawley rat blood at 0.5 to 1 mg/kg, iv after 15 mins by gamma-well counting analysis; assay type: ADME, organism-based; conditions: in vivo, 0.25 h
Heart [38] = assay: Biodistribution in Sprague-Dawley rat heart assessed per organ at 0.5 to 1 mg/kg, iv after 1 hr by gamma-well counting analysis; assay type: ADME, organism-based; conditions: in vivo
Small intestine [39] = assay: Biodistribution in Sprague-Dawley rat small intestine assessed per organ at 0.5 to 1 mg/kg, iv after 15 mins by gamma-well counting analysis; assay type: ADME, organism-based; conditions: in vivo, 0.25 h
[40] = Biodistribution in Sprague-Dawley rat fat and fur assessed per organ at 0.5 to 1 mg/kg, iv after 15 mins by gamma-well counting analysis; assay type: ADME, organism-based, Adipose tissue; conditions: in vivo, 0.25 h
Kidney [41] = assay: Biodistribution in Sprague-Dawley rat kidney at 0.5 to 1 mg/kg, iv after 1 hr by gamma-well counting analysis; assay type: ADME, organism-based; conditions: in vivo
Spleen [42] = assay: Biodistribution in Sprague-Dawley rat spleen at 0.5 to 1 mg/kg, iv after 15 mins by gamma-well counting analysis; assay type: ADME, organism-based; conditions: in vivo, 0.25 h
Muscle tissue [43] = assay: Biodistribution in Sprague-Dawley rat muscle at 0.5 to 1 mg/kg, iv after 1 hr by gamma-well counting analysis; assay type: ADME, organism-based; conditions: in vivo
Muscle tissue [44] = assay: Biodistribution in Sprague-Dawley rat muscle assessed per organ at 0.5 to 1 mg/kg, iv after 15 mins by gamma-well counting analysis; assay type: ADME, organism-based; conditions: in vivo, 0.25 h

- Drug uptake (Heart [1]): 0.19 % ID/g
- Drug uptake (Bone [2]): 1.84 %ID
- Drug uptake (Thyroid gland [3]): 0.14 %ID
- Drug uptake (Lung [4]): 2.01 % ID/g
- Drug uptake (Liver [5]): 0.66 % ID/g
- Drug uptake (Bone [6]): 0.16 % ID/g
- Drug uptake (Large intestine [7]): 0.91 %ID
- Drug uptake (Spleen [8]): 0.4 %ID
- Drug uptake (Thyroid gland [9]): 6.85 % ID/g
- Drug uptake (Liver [10]): 7.3 %ID
- Drug uptake (Thyroid gland [11]): 2.76 % ID/g
- Drug uptake (Blood [12]): 0.1 % ID/g
- Drug uptake (Large intestine [13]): 1.41 %ID
- Drug uptake (Blood [14]): 1.44 %ID
- Drug uptake (Lung [15]): 3.9 %ID
- Drug uptake (Heart [16]): 0.26 %ID
- Drug uptake (Kidney [17]): 1.58 %ID
- Drug uptake (Kidney [18]): 0.98 % ID/g
- Drug uptake (Spleen [19]): 0.6 % ID/g
- Drug uptake (Muscle tissue [20]): 10.71 %ID
- Drug uptake (Blood [21]): 1.87 %ID
- Drug uptake (Thyroid gland [22]): 0.06 %ID
- Drug uptake (Bone [23]): 0.12 % ID/g
- Drug uptake (Kidney [24]): 1.83 %ID
- Drug uptake [25]: 9.69 %ID
- Drug uptake (Stomach [26]): 2.24 %ID
- Drug uptake (Small intestine [27]): 16.23 %ID
- Drug uptake (Liver [28]): 7.08 %ID
- Drug uptake (Bone [29]): 2.52 %ID
- Drug uptake (Spleen [30]): 0.52 %ID
- Drug uptake (Heart [31]): 0.35 % ID/g
- Drug uptake (Lung [32]): 2.78 %ID
- Drug uptake (Stomach [33]): 1.99 %ID
- Drug uptake (Liver [34]): 0.74 % ID/g
- Drug uptake (Lung [35]): 2.58 % ID/g
- Drug uptake (Muscle tissue [36]): 0.2 % ID/g
- Drug uptake (Blood [37]): 0.12 % ID/g
- Drug uptake (Heart [38]): 0.16 %ID
- Drug uptake (Small intestine [39]): 12.98 %ID
- Drug uptake [40]: 8.82 %ID
- Drug uptake (Kidney [41]): 0.76 % ID/g
- Drug uptake (Spleen [42]): 1.15 % ID/g
- Drug uptake (Muscle tissue [43]): 0.1 % ID/g
- Drug uptake (Muscle tissue [44]): 19.67 %ID
SMILES: CC(C)NCC(O)COc1ccc([125I])c2ccccc12 (racemic)

- Drug uptake (Heart [1]): 0.51 % ID/g
- Drug uptake (Bone [2]): 2.44 %ID
- Drug uptake (Thyroid gland [3]): 0.07 %ID
- Drug uptake (Lung [4]): 1.82 % ID/g
- Drug uptake (Liver [5]): 1.39 % ID/g
- Drug uptake (Bone [6]): 0.21 % ID/g
- Drug uptake (Large intestine [7]): 0.94 %ID
- Drug uptake (Spleen [8]): 0.6 %ID
- Drug uptake (Thyroid gland [9]): 3.58 % ID/g
- Drug uptake (Liver [10]): 18.94 %ID
- Drug uptake (Thyroid gland [11]): 4.73 % ID/g
- Drug uptake (Blood [12]): 0.06 % ID/g
- Drug uptake (Large intestine [13]): 0.56 %ID
- Drug uptake (Blood [14]): 0.86 %ID
- Drug uptake (Lung [15]): 1.89 %ID
- Drug uptake (Heart [16]): 0.64 %ID
- Drug uptake (Kidney [17]): 2.3 %ID
- Drug uptake (Kidney [18]): 1.82 % ID/g
- Drug uptake (Spleen [19]): 1.14 % ID/g
- Drug uptake (Muscle tissue [20]): 15.96 %ID
- Drug uptake (Blood [21]): 0.79 %ID
- Drug uptake (Thyroid gland [22]): 0.1 %ID
- Drug uptake (Bone [23]): 0.18 % ID/g
- Drug uptake (Kidney [24]): 3.45 %ID
- Drug uptake [25]: 7.19 %ID
- Drug uptake (Stomach [26]): 0.7 %ID
- Drug uptake (Small intestine [27]): 5.49 %ID
- Drug uptake (Liver [28]): 15.97 %ID
- Drug uptake (Bone [29]): 2.93 %ID
- Drug uptake (Spleen [30]): 0.8 %ID
- Drug uptake (Heart [31]): 0.89 % ID/g
- Drug uptake (Lung [32]): 2.19 %ID
- Drug uptake (Stomach [33]): 0.71 %ID
- Drug uptake (Liver [34]): 1.76 % ID/g
- Drug uptake (Lung [35]): 1.24 % ID/g
- Drug uptake (Muscle tissue [36]): 0.2 % ID/g
- Drug uptake (Blood [37]): 0.06 % ID/g
- Drug uptake (Heart [38]): 0.35 %ID
- Drug uptake (Small intestine [39]): 2.45 %ID
- Drug uptake [40]: 5.87 %ID
- Drug uptake (Kidney [41]): 1.27 % ID/g
- Drug uptake (Spleen [42]): 1.33 % ID/g
- Drug uptake (Muscle tissue [43]): 0.17 % ID/g
- Drug uptake (Muscle tissue [44]): 18.27 %ID
SMILES: CC(C)NCC(O)COc1ccc(NC(=O)c2cccc([125I])c2)cc1 (racemic)

— ChEMBL document CHEMBL3272333, “Synthesis and biologic distribution of radioiodinated beta-adrenergic antagonists” (J Med Chem, 1978)
